Data from patent US11254671B2, “Chemical compounds” (GLAXOSMITHKLINE INTELLECTUAL PROPERTY DEVELOPMENT LIMITED, priority 2017, dated 2022).
Values joined by “and” are separate entries in the source; they are usually repeats but may differ in a detail not shown here. Equal entries are not always repeated.

Key:
[1] = tested on: phosphorylated Akt at serine 473 (pAKTs473) in primary human lung fibroblasts; assay: Highthroughput phosphorylated Akt (Ser473) in vitro immunoassay (MSD); format: cell-based; settings: Fibroblast, 1 h compound, PDGF-BB 10 ng/ml for 10 min, mean of multiple experiments, read-out: mean pIC50, inhibition of pAkt (Ser473) (converted)
From the text: Highthroughput Phosphorylated Akt (Ser473) In Vitro Immunoassay
Immunoassay to measure effect of test compounds on phosphorylated Akt at serine 473 (pAKTs473) in primary human lung fibroblasts (Lonza Group Ltd, Basel, Switzerland, Catalogue No. CC-2512) using the MesoScale Discovery (MSD) platform to quantify levels of total Akt and pAKTser473.
Human lung fibroblasts were routinely maintained in fibroblast basal medium supplemented with 2% foetal bovine serum (FBS), 0.1% human fibroblast growth factor (FGF)-B, 0.1% insulin, 0.1% GA-100 (Lonza Group Ltd, Basel, Switzerland, Catalogue No. CC-3132) at 37° C. in 5% CO2 according to the manufacturer's protocol.
For the assay, cells were harvested using Trypsin/EDTA, (Lonza Group Ltd, Basel, Switzerland, Catalogue No. CC-5012), at working concentration of 0.025%, resuspended to give 3×10^5 cells/ml and 50 ul/well seeded into 384-well plates (Greiner Group, Kremsmunster, Austria, Catalogue No. 781091) in media containing 0.4% FBS and incubated o/n at 37° C. in 5% CO2.
Test compounds were dissolved in 100% DMSO to give 10 mM stock solutions and serially diluted to generate an 11-point concentration response curve. Compound were further diluted by […] into 384-well V-bottom polypropylene plates (Greiner Group, Kremsmunster, Austria, Catalogue No. 781280) with media containing 0.4% FBS to give 50 μM top compound concentration in 0.5% DMSO.
Compounds were transferred to 384-well plates contacting cells (0.1% DMSO final) and incubated for 1 h at 37° C. in 5% CO2, prior to stimulation with platelet-derived growth factor (PDGF)-BB (R&D Systems, Catalogue No. 220-BB) at 10 ng/ml (final) for 10 min at RT. Cell assay plates were incubated on ice and treated with lysis buffer (Cell Signalling Technology, Catalogue No. 9806) containing protease and phosphatase inhibitors (Thermo Scientific, Catalogue No. 78444) followed by shaking for 30 min at 4° C.
MSD plates (MSD, MA6000 384-well GAR plate, Catalogue No. L21RA-2) were blocked with blocking buffer containing TBS (MSD, Cat. No. R61TX-1) with 0.5% bovine serum albumin (BSA) (Sigma Aldrich, Cat. No. A7906), 0.1% tween-20 (Sigma Aldrich, Catalogue No. P2287) and coated with rabbit-anti-human pAkt (s473) ab (Cell Signalling Technology, Catalogue No. CST #4060) at RT with shaking, followed by washing (×3) with 1×TBS wash reagent containing 0.1% Tween-20. Cell lysates (30 ul) were added and MSD plates centrifuged at 1000 rpm at 4° C. o/n.
Plates were washed with 1×TBS wash buffer (×3), prior to addition of mouse-anti-human-total Akt ab (1 mg/ml) (Upstate (Milipore), Catalogue No. 05-591) in blocking buffer and shaken at RT for 1 h. After washing with 1×TBS wash buffer (×3), plates were incubated with goat-anti-mouse SULFO-TAG detection ab (MSD, Catalogue No. R32AC-1) (1:500 in blocking buffer) for 1 h at RT. Plates were washed with 1×TBS (×3) and read buffer (2×) (MSD, Catalogue No. R92TC-1) added before detecting electrochemiluminescence (MSD Sector Imager 6000).
Data analysis was performed by determining % inhibition values for test compounds relative to the minimum (+PDGF-BB stimulation) and maximum responses (no PDGF-BB stimulation) with non-linear regression analysis to determine IC50 values for test compounds.

mTOR = biological target: T1, mTOR (Homo sapiens, UniProt P42345); assay: mTOR kinobeads assay (competition-binding assay); settings: HuT-78 cell extract, endogenously expressed mTOR, bead-immobilized capturing ligand; mean of multiple experiments; read-out: mean pIC50, affinity for mTOR (converted)
T1 construct: capturing of endogenously expressed target proteins from cell extracts by a bead-immobilized capturing ligand; endogenous in cells; host or cells: HuT-78 cells (ECACC 88041901), cell lysate
Description: The affinity of test compounds for mTOR was determined in the mTOR kinobeads assay. This is a competition-binding assay based on the capturing of endogenously expressed target proteins from cell extracts by a bead-immobilized capturing ligand in presence of the test compound.
HuT-78 cells (European Collection of Authenticated Cell Cultures, 88041901) were cultured according to vendor's instructions. Frozen cell pellets were homogenized in 3× pellet volumes lysis buffer (50 mM Tris-HCl, 0.4% (v/v) Igepal-CA630, 5% glycerol, 150 mM NaCl, 1.5 mMMgCl2, 25 mM NaF, 1 mM sodium vanadate, 1 mM DTT, pH 7.5, supplemented with EDTA-free protease inhibitor tablet (Roche)). The sample was dispersed using a Dounce homogenizer, kept rotating for 30 min at 4° C., and centrifuged for 10 min at 20 000 g at 4° C. The supernatant was centrifuged again for 1 h at 145 000 g. The protein concentration was determined by Bradford assay (BioRad), aliquots were snap frozen in liquid nitrogen and stored at −80° C.
The capturing matrices were generated by derivatizing N-hydroxysuccinimide (NHS) activated Sepharose 4 beads (GE Healthcare) with the functionalized ligands Compound A and Compound C at a ligand density of 5 mM. Remaining NHS-groups were blocked with ethanolamine.
For the mTOR kinobeads assay the matrices were combined in a 1:1 ratio and equilibrated in DP buffer (50 mM Tris-HCl (pH 7.5), 0.4% (v/v) Igepal-CA630, 5% (v/v) glycerol, 150 mM NaCl, 1.5 mM MgCl2, 25 mM NaF, 1 mM Na3VO4, 1 mM dithiothreitol). All steps of the mTOR kinobeads assay were performed at 4° C. or on ice. The cell lysate was diluted with DP buffer to a final concentration of 5 mg/ml and a final detergent concentration of 0.4% (v/v) Igepal-CA630. For the assay 250 μg cell lysate and 2.5 μl capturing matrix per well (final assay volume: 75 μl) were incubated in the presence of test compounds in a 384-well filter plate (MultiScreenHTS HV Filter Plate, 0.45 μm, MZHVNOW50, Merck Millipore). Each plate contained 16 positive (100 μM Compound B) and 16 negative (2% v/v DMSO) control wells. Compounds were tested in a concentration-response applying 1:3 or 1:4 dilution steps for in total 11 data points. DMSO concentration was 2% (v/v). After 2 h incubation on an overhead shaker (Roto-Shake Genie, Scientific Industries Inc.) at 4° C. the non-bound fraction was removed by washing the beads with DP buffer. Proteins retained on the beads were eluted in SDS sample buffer (200 mM Tris (pH 7.4), 250 mM Trizma Base, 4% (w/v) SDS, 20% (v/v) glycerol, 0.01% (w/v) bromophenol blue, 50 mM dithiothreitol) into a collection plate (384 well polypropylene microplate, V-shape, Greiner, 781 280). Eluates were spotted on nitrocellulose membranes (400 nl per spot) using an automated pin-tool liquid transfer (Biomek FX, Beckman). After drying, the membranes were rehydrated in 20% (v/v) ethanol and blocked by incubation with Odyssey blocking buffer (LICOR, 927-40000) for 1 h at room temperature. Blocked membranes were incubated overnight at 25° C. with Odyssey blocking buffer supplemented with a specific anti-mTOR antibody (Cell Signaling, 2972; 1:500) and 0.4% TWEEN-20. Then the membranes were washed in PBST buffer and incubated for 60 minutes at room temperature with the detection antibody (IRDye™ labelled antibody from LI-COR) diluted in Odyssey blocking buffer (LICOR 927-40000) containing 0.2% TWEEN-20. Then the membranes were washed with PBST and finally rinsed twice with PBS buffer to remove residual Tween-20. The membranes were then scanned with the Odyssey® Infrared Imaging System (LI-COR Biosciences). Fluorescence signals were recorded and analyzed according to the instructions of the manufacturer. Concentration response curves were computed with the software Activity Base. All data were normalized to the mean of 16 high (negative control) and 16 low (positive control) control wells on each plate. […]

IC50 (mTOR) | Structure (SMILES) | IC50 [1] [nM]
2.51 to 31.6 nM and 2.51 to 316 nM | CNCc1cc2nc(-c3cc(C4(S(C)(=O)=O)CCOCC4)cc(N4CC5CCC(C4)O5)n3)ccc2[nH]1 [Example 37, ({5-[4-(4-methanesulfonyloxan-4-yl)-6-{8-oxa-3-azabicyclo[3.2.1]octan-3-yl}pyridin-2-yl]-1H-pyrrolo[3,2-b]pyridin-2-yl}methyl)(methyl)amine] | 3.16 to 316
2.51 to 31.6 nM and 2.51 to 316 nM | CC[C@H]1COCCN1c1cc(CS(N)(=O)=O)cc(-c2ccc3[nH]c(CNC)cc3n2)n1 [Example 29, {2-[(3S)-3-ethylmorpholin-4-yl]-6-{2-[(methylamino)methyl]-1H-pyrrolo[3,2-b]pyridin-5-yl}pyridin-4-yl}methanesulfonamide] | 3.16 to 316
2.51 to 316 nM | CNCc1cc2nc(-c3cc(CS(C)(=O)=O)cc(N4CCCOCC4)n3)ccc2[nH]1 [Example 45, ({5-[4-(methanesulfonylmethyl)-6-(1,4-oxazepan-4-yl)pyridin-2-yl]-1H-pyrrolo[3,2-b]pyridin-2-yl}methyl)(methyl)amine] | 
2.51 to 316 nM | CC[C@H]1COCCN1c1cc(C2(S(C)(=O)=O)CCOCC2)cc(-c2ccc3[nH]c(CN(C)CC)cc3n2)n1 [Example 16, (S)—N-((5-(6-(3-ethylmorpholino)-4-(4-(methylsulfonyl)tetrahydro-2H-pyran-4-yl)pyridin-2-yl)-1H-pyrrolo[3,2-b]pyridin-2-yl)methyl)-N-methylethanamine] | 3.16 to 316
2.51 to 31.6 nM and 15.8 nM and 2.51 to 316 nM | CC[C@H]1COCCN1c1cc(C(C)(C)S(C)(=O)=O)cc(-c2ccc3[nH]c(CNC)cc3n2)n1 [Example 1, [(5-{6-[(3S)-3-ethylmorpholin-4-yl]-4-(2-methanesulfonylpropan-2-yl)pyridin-2-yl}-1H-pyrrolo[3,2-b]pyridin-2-yl)methyl](methyl)amine] | 
 | CC[C@H]1COCCN1c1cc(C2(S(N)(=O)=O)CCOCC2)cc(-c2ccc3[nH]c(CNC)cc3n2)n1 [Example 27, 4-{2-[(3S)-3-ethylmorpholin-4-yl]-6-{2-[(methylamino)methyl]-1H-pyrrolo[3,2-b]pyridin-5-yl}pyridin-4-yl}oxane-4-sulfonamide] | 3.16 to 316
2.51 to 31.6 nM and 2.51 to 316 nM | CC[C@H]1COCCN1c1cc(C2(S(C)(=O)=O)CCNCC2)cc(-c2ccc3[nH]c(CNC)cc3n2)n1 [Example 24, [(5-{6-[(3S)-3-ethylmorpholin-4-yl]-4-(4-methanesulfonylpiperidin-4-yl)pyridin-2-yl}-1H-pyrrolo[3,2-b]pyridin-2-yl)methyl](methyl)amine] | 3.16 to 316
2.51 to 316 nM | CC[C@H]1COCCN1c1cc(CS(C)(=O)=O)cc(-c2ccc3[nH]c(CN(C)CC)cc3n2)n1 [Example 14, (S)—N-((5-(6-(3-ethylmorpholino)-4-((methylsulfonyl)-methyl)pyridin-2-yl)-1H-pyrrolo[3,2-b]pyridin-2-yl)-methyl)-N-methylethanamine] | 3.16 to 316
2.51 to 316 nM | CNCc1cc2nc(-c3cc(CS(C)(=O)=O)cc(N4CCOC[C@H]4C)n3)ccc2[nH]1 [Example 26, ({5-[4-(methanesulfonylmethyl)-6-[(3R)-3-methylmorpholin-4-yl]pyridin-2-yl]-1H-pyrrolo[3,2-b]pyridin-2-yl}methyl)(methyl)amine] | 3.16 to 316
2.51 to 316 nM | CNCc1cc2nc(-c3cc(CS(C)(=O)=O)cc(N4CCOCC4)n3)ccc2[nH]1 [Example 46, ({5-[4-(methanesulfonylmethyl)-6-(morpholin-4-yl)pyridin-2-yl]-1H-pyrrolo[3,2-b]pyridin-2-yl}methyl)(methyl)amine] | 
2.51 to 31.6 nM and 7.94 nM and 2.51 to 316 nM | CC[C@H]1COCCN1c1cc(C2(S(C)(=O)=O)CCOCC2)cc(-c2ccc3[nH]c(CNC)cc3n2)n1 [Example 15, (S)-1-(5-(6-(3-ethylmorpholino)-4-(4-(methylsulfonyl)tetrahydro-2H-pyran-4-yl)pyridin-2-yl)-1H-pyrrolo[3,2-b]pyridin-2-yl)-N-methylmethanamine] | 2.51 to 10
2.51 to 316 nM | CC[C@H]1COCCN1c1cc(C2(S(C)(=O)=O)CCN(C(C)=O)CC2)cc(-c2ccc3[nH]c(CNC)cc3n2)n1 [Example 39, 1-(4-{2-[(3S)-3-ethylmorpholin-4-yl]-6-{2-[(methylamino)methyl]-1H-pyrrolo[3,2-b]pyridin-5-yl}pyridin-4-yl}-4-methanesulfonylpiperidin-1-yl)ethan-1-one] | 

Structure (SMILES) | IC50 (mTOR) | IC50 [1] [nM]
CNCc1cc2nc(-c3cc(CS(C)(=O)=O)cc(N4C5CCC4COC5)n3)ccc2[nH]1 [Example 47, ({5-[4-(methanesulfonylmethyl)-6-{3-oxa-8-azabicyclo[3.2.1]octan-8-yl}pyridin-2-yl]-1H-pyrrolo[3,2-b]pyridin-2-yl}methyl)(methyl)amine] | 2.51 to 316 nM | 3.16 to 316
